We go through two compounds from patent publication US20250002854A1, “METHODS OF GENERATING POPULATIONS OF TUMOUR-INFILTRATING T CELLS” (LYTIX BIOPHARMA AS, priority 2016, published 2025).

“Also recorded” adds a separate entry of the source. Square brackets hold non-standard residues; d marks the D form. Ends that are not written are not given here. Dip = N[C@H](C(=O)O)C(c1ccccc1)c1ccccc1

Experiment [1] concerns B16F1 cells. Kind of experiment: LysoTracker DND-26, flow cytometry and confocal microscopy. It counts as cell-based, murine. As to conditions: 27 μM, 60 minutes. The protocol: Flow cytometry: B16F1 cells were seeded in 6-well plates and allowed to adhere overnight. […] Untreated cells were used as a control. Cells were trypsinized and investigated on a FACS Calibur Flow cytometer, and the results were processed using FlowJo Software (Tree Star, Inc., Ashland, OR, USA). PI was utilized in some experiments to gate away cells with compromised plasma membrane.
Confocal microscopy: B16F1 cells were seeded in 8-well plates (Nunc) at 1×10^4 cells/well and allowed to adhere overnight. Next, cells were treated with 27 μM of LTX-401 for 60 minutes and labelled with LysoTracker DND-26 for 5 minutes and with Hoecsht33342 for nuclear staining. Cells were immediately investigated on a Zeiss Confocal microscope with a controlled temperature and atmosphere.
(Flow cytometry measures light scatter and fluorescence of single cells or particles in a stream.)

The subject of experiment [2] is B16F1 cells. Briefly: TEM electron microscopy of B16F1 cells. The class given is cell-based, murine. Particulars: 108 μM. The protocol:
B16F1 cells were seeded in 35 mm sterile tissue culture dishes at a density of 1×10^4 cells in a volume of 2 ml of culture media, and left to adhere and grow in a cell incubator at 37° C., >95% humidity and 5% CO2 conditions. When cultured cells reached an acceptable confluence (˜80-90%), they were incubated with the 4×IC50^4h value of LTX-401 (108 μM) for different time points (5, 15, 30 and 60 minutes) and subsequently fixed in a PHEM buffered (0.1 M) solution containing 0.05% malachite green oxalate (Sigma), 0.5% glutaraldehyde (GA, Electron Microscopy Sciences) and 4% formaldehyde (FA, Electron Microscopy Sciences). Malachite green is more frequently being used as an additive to primary fixation in order to reduce lipid extraction commonly associated with sample processing. Samples were immediately loaded and processed en bloc using the PELCO Biowave Pro Laboratory Microwave (Ted Pella, Inc.), a newly introduced method considered to be advantageous over conventional bench protocols, since it reduces sample preparation from days to hours. For all microwave steps, samples were microwaved at 23° C. with a 50° C. cut-out temperature. Both malachite green/GA/FA and osmium-reduced ferrocyanide (0.8% K3Fe (CN)6/1% OsO4) fixation steps were run in “power on/off” cycles of 2 minutes on, 2 minutes off (100 W), with vacuum.
Samples were rinsed four times with 0.1 M PHEM buffer between each step (two bench rinses and two final rinses for 40 seconds at 250 W) before being stained with 1% tannic acid (Electron Microscopy Sciences, PA, USA) and 1% aqueous uranyl acetate (Electron Microscopy Sciences, PA, USA) under “power on/off” cycles of 1 minute on, 1 minute off (150 W), with vacuum. Samples were rinsed as previously described between each staining procedure, in addition to being microwaved twice in water at 250 W (vacuum off). […]

For experiment [3], the system named is murine B16 melanomas. Briefly: Murine melanoma model, intratumoural injections of LTX-401. It counts as in vivo.
For experiment [4], the system named is rat transformed mesenchymal stem cell-derived sarcoma (rTMSC). Briefly: Immunohistochemistry of rat rTMSC tumours. As to conditions: primary and secondary tumor tissues. The class given is in vivo. The protocol: (§1) Pre-cultured rat transformed mesenchymal stem cell-derived sarcoma model cells (rTMSCs) were harvested in serum free RPMI-1640 and 200,000 rTMSCs were subcutaneously inoculated in the right flank into PVG rats on day ÷2 and 20,000 rTMSCs in the opposite flank on day 0. Established tumours (25 mm^2 mean tumour size) were injected intralesionally with LTX-315 (dissolved in sterile H2O with 0.9% NaC ) (n=8) or with vehicle (sterile H2O with 0.9% NaCl) (n=6). Treatment doses of LTX-315, 50 μl at […] (1 mg), were given using a 1 ml syringe (Myjector U-100, Terumo) needle 0.5×16 mm (Fine-Ject; Henke-Sass, Wolf GmbH. Injections were provided daily for three subsequent days. Tumour size was measured three times a week using a caliper and expressed as the area of an ellipse [(maximum dimension/2)×(minimum dimension/2)]. Animals were terminated when the tumor exceeded 400 mm^2.
Formalin-fixed and paraffin-embedded tissue sections were deparaffinized in xylene and graded alcohols, hydrated and washed in PBS. After antigen retrieval in sodium citrate buffer (pH 6) in a microwave oven, the endogenous peroxidase was blocked by 0.3% H2O2 for 15 min. Sections were incubated overnight at 4° C. with primary antibody; rabbit polyclonal anti-CD3 (clone A0452 Dako) or mouse monoclonal anti-CD8 (clone OX8, ab33786, Abcam). […]

The test system is the same in experiment [5]. Kind of experiment: FACS analysis of TILs in rat rTMSC sarcoma model. It counts as in vivo. As to conditions: for percentage of T cells / CD8+ cells within the CD3+ T cell population: mean±SD. Here is the method:
as §1
Single-cell suspensions were prepared from fresh tumour tissue at different time points during the week after LTX-315 treatment. Tumours were gently minced with a razor blade and cut into small pieces (4 mm^2). Tumour tissue was incubated with Liberase TM (Thermolysin Medium; Roche Diagnostics) at a concentration of 0.18 Wünsch units/ml in 10 ml MEM media (Sigma-Aldrich) at 37° C. for 60 min with gentle agitation. The enzymatic digestion was terminated by addition of 2 ml 4° C. FCS (Invitrogen, Thermo Fischer). The cell suspension was filtered through a […] mesh (Cell Strainer; BD), washed in PBS and cells were then directly used for flow cytometric staining.
The mouse monoclonal antibodies against CD4 ([…]) and CD8 ([…]) were isolated from culture supernatants from hybridomas and were kind gifts from the MRC Cellular Immunology Unit, Oxford, UK. They were conjugated at IMB according to standard protocols. Fluorochrome-conjugated mAbs against CD3 (G4.18) was obtained from BD Biosciences, including PerCP Streptavidin. A four-color panel consisting of reagents in FITC/AI488, PE, PerCP Streptavidin and AI647 was applied and analyzed on a FACS Calibur (BD) equipped with the CellQuest software (BD). Dot plot and histogram gates were set using isotype control antibodies.

On to `Cl.Cl.NCCNC(=O)C(CN)(CCCc1ccccc1)CCCc1ccccc1` [LTX-401], for which the “LysoTracker DND-26 signal” value in experiment [1] was “induced a decreased signal”. For the same compound, the ultrastructural changes result in experiment [2] (5 min) is recorded as “lost their surface morphology”; in experiment [2] (60 minutes), “Large portions of cells were necrotic”. The “mode of cell killing” value in experiment [2] (TEM) is “kills by a lytic mode of action”. The “tumour regression / remission” value in experiment [3] was “complete and long-lasting remission; also recorded: complete regression”.
Turning to “K-K-W-W-K-K-W-Dip-K-NH2 (KKWWKKW[Dip]K-NH2) [LTX-315]”, in experiment [4], the “infiltration of CD3+ and CD8+ cells (immunohistochemistry)” value was “increased infiltration of CD3^+ and CD8^+ cells”. For the same compound, the “percentage of T cells” value in experiment [5] (primary treated lesion) was found to be 28.35±11.78%; in experiment [5] (secondary tumor tissue), 39.83±17.4%. In addition, the figures for the “CD8+ cells within the CD3+ T cell population” value in experiment [5] (primary tumor of treated rats) and in experiment [5] (secondary tumor of treated rats) were 62.77±13.3 and 45.8±5.4, respectively. Besides, the “increase of percentage of T cells compared to untreated rats” value in experiment [5] (secondary tumor tissue) amounted to 3 fold.
